{
  "source": "paper PMC8592419",
  "about": "(PLoS ONE, 2021)",
  "key": {"[1]": {"system": "M. abscessus clinical isolate MAB14", "test": "microbe, parasite or virus in culture", "assay_type": "cell-based, M. abscessus subsp. massiliense", "conditions": "MAB14", "protocol": "(§1) Mab suspensions at a 5×10^5 CFU/ml final concentration were added to each well and incubated for 3 days and 14 days at 37°C. MIC values were defined when the percent killing of CFUs of more than 90% were compared to the media controls without AMPs or drugs. The fraction inhibitory concentration index (FICI) was calculated using the following formula: FICI = [C(MIC^A)/MIC^A] + [C(MIC^B)/MIC^B]. […] For interpretation, FICI ≤ 0.5 was interpreted as synergism, FICI >0.5–1.0 was interpreted as additive, FICI >1.0–4.0 was interpreted as indifferent and FICI >4.0 was interpreted as antagonism."}, "[2]": {"system": "M. abscessus clinical isolate MAB12", "test": "microbe, parasite or virus in culture", "assay_type": "cell-based, M. abscessus subsp. massiliense", "conditions": "MAB12", "protocol": "as §1"}, "[3]": {"system": "M. abscessus clinical isolate MAB08", "test": "In vitro antimicrobial susceptibility of potential AMPs, broth microdilution, 3 days", "assay_type": "cell-based, M. abscessus subsp. abscessus", "conditions": "3 days at 37°C", "protocol": "(§2) Briefly, serial dilutions of the AMPs were prepared with potassium phosphate buffer (PPB) from the concentration range of 3.125 to 400 μg/ml and then 50 μl of each dilution were added to each 96-well plate. Colonies of the isolate were suspended and then further diluted in Mueller-Hinton broth to obtain a final concentration of 1×10^3 CFU/ml (optimized according to the available AMP stock concentration). Fifty microliters of this inoculum were added to each well of the plates. The plates were incubated for 3 days at 37°C. Plain media and bacterial suspensions without AMPs were used as negative and positive controls. The MIC values were read and recorded. All assays were performed in duplicate and two independent experiments.\n(§3) For the in vitro antimicrobial susceptibility, the same protocol as described above was used. The culture plates were further incubated up to 3 days at 37°C. The MIC values were read and recorded."}, "[4]": {"system": "M. abscessus clinical isolate MAB04", "test": "In vitro antimicrobial susceptibility of potential AMPs, broth microdilution, 3 days", "assay_type": "cell-based, M. abscessus subsp. abscessus", "conditions": "3 days at 37°C", "protocol": "as §2, §3"}, "[5]": {"system": "human red blood cells (RBCs)", "test": "Hemolytic toxicity test", "assay_type": "cell-based", "conditions": "for Hemolytic activities (%hemolysis): human RBCs, 1 h at 37°C, mean±SD of duplicates, two independent experiments", "protocol": "For the hemolytic toxicity test, red blood cells (RBCs) from fresh blood samples of healthy volunteers were obtained by centrifugation at 1,000 rpm for 5 min. The cells were washed three times with sterile phosphate buffered saline (PBS) and adjusted into 1×10^8 cells/ml. AMPs were diluted with PPB in ranging from 6.25 to 400 μg/ml. Fifty microliters of the RBC suspensions and 50 μl of AMP solutions were added to 1.5 ml sterile microtubes, incubated for 1 h at 37°C and then centrifuged at 1,000 rpm for 5 min. The supernatants were transferred to new 96-well microtiter plates for measurement of the absorbance at 540 nm using a microplate reader. RBC suspensions treated with 2% (v/v) Triton X-100 and PBS solution were used as positive and negative controls. The percentages of hemolysis were calculated using the following formula: % of RBC lysis = 100 × [(Test—PBS) / (Positive control—PBS)]. All assays were performed in duplicate and two independent experiments."}, "[6]": {"system": "M. abscessus clinical isolate MAB10", "test": "microbe, parasite or virus in culture", "assay_type": "cell-based, M. abscessus subsp. abscessus", "conditions": "MAB10", "protocol": "as §1"}, "[7]": {"system": "M. abscessus clinical isolate MAB01", "test": "microbe, parasite or virus in culture", "assay_type": "cell-based, M. abscessus subsp. abscessus", "conditions": "MAB01; AMP + CLA; mean ± S.D., two independent experiments", "protocol": "as §1"}, "[8]": {"system": "M. abscessus clinical isolate MAB09", "test": "microbe, parasite or virus in culture", "assay_type": "cell-based, M. abscessus subsp. abscessus", "conditions": "MAB09", "protocol": "as §1"}, "[9]": {"system": "M. abscessus clinical isolate MAB07", "test": "microbe, parasite or virus in culture", "assay_type": "cell-based, M. abscessus subsp. abscessus", "conditions": "MAB07", "protocol": "as §1"}, "[10]": {"system": "M. abscessus clinical isolate MAB03", "test": "microbe, parasite or virus in culture", "assay_type": "cell-based, M. abscessus subsp. abscessus", "conditions": "MAB03", "protocol": "as §1"}, "[11]": {"system": "M. abscessus clinical isolate MAB05", "test": "microbe, parasite or virus in culture", "assay_type": "cell-based, M. abscessus subsp. abscessus", "conditions": "MAB05", "protocol": "as §1"}, "[12]": {"system": "M. abscessus clinical isolate MAB02", "test": "microbe, parasite or virus in culture", "assay_type": "cell-based, M. abscessus subsp. abscessus", "conditions": "MAB02", "protocol": "as §1"}, "[13]": {"system": "M. abscessus clinical isolate MAB11", "test": "microbe, parasite or virus in culture", "assay_type": "cell-based, M. abscessus subsp. abscessus", "conditions": "MAB11", "protocol": "as §1"}, "[14]": {"system": "M. abscessus clinical isolate MAB16", "test": "In vitro antimicrobial susceptibility of potential AMPs, broth microdilution, 3 days", "assay_type": "cell-based, M. abscessus subsp. massiliense", "conditions": "3 days at 37°C", "protocol": "as §2, §3"}, "[15]": {"system": "M. abscessus clinical isolate MAB15", "test": "In vitro antimicrobial susceptibility of potential AMPs, broth microdilution, 3 days", "assay_type": "cell-based, M. abscessus subsp. massiliense", "conditions": "3 days at 37°C", "protocol": "as §2, §3"}, "[16]": {"conditions": "AMP + CLA, mean ± S.D., two independent experiments"}},
  "note": "Where a SMILES comes first, the peptide text is derived from it.",
  "data": [
    {"smiles": "CC[C@H](C)[C@H](NC(=O)[C@H](CCCCN)NC(=O)[C@H](CCCNC(=N)N)NC(=O)CNC(=O)[C@H](CC(C)C)NC(=O)[C@H](CO)NC(=O)[C@H](CCCNC(=N)N)NC(=O)[C@H](CC(C)C)NC(=O)CNC(=O)CN)C(=O)N[C@@H](CC(C)C)C(=O)N[C@@H](CCCNC(=N)N)C(=O)N[C@@H](C)C(=O)N[C@@H](Cc1c[nH]c2ccccc12)C(=O)N[C@@H](CCCCN)C(=O)O", "note": "[S63] (H-GGLRSLGRKILRAWK-OH)", "values": [
      {"measurement": "FICI", "setting": "[1]; [16]", "result": "0.19±0.00"},
      {"measurement": "MIC, AMP alone", "setting": "[1]; AMP alone", "result": ">400", "unit": "µg/mL"},
      {"measurement": "FICI", "setting": "[2]; [16]", "result": "1.01±0.00"},
      {"measurement": "MIC, AMP alone", "setting": "[2]; AMP alone", "result": ">400", "unit": "µg/mL"},
      {"measurement": "Antimicrobial peptides against M. abscessus isolates, MIC value", "setting": "[3]", "result": ">400", "unit": "µg/mL"},
      {"measurement": "Antimicrobial peptides against M. abscessus isolates, MIC value", "setting": "[4]", "result": ">400", "unit": "µg/mL"},
      {"measurement": "Hemolytic activities (%hemolysis)", "setting": "[5]; 6.25 µg/mL", "result": "-0.53±0.75", "unit": "%"},
      {"measurement": "Hemolytic activities (%hemolysis)", "setting": "[5]; 12.5 µg/mL", "result": "3.52±4.98", "unit": "%"},
      {"measurement": "Hemolytic activities (%hemolysis)", "setting": "[5]; 25 µg/mL", "result": "5.81±3.73", "unit": "%"},
      {"measurement": "Hemolytic activities (%hemolysis)", "setting": "[5]; 50 µg/mL", "result": "7.04±3.98", "unit": "%"},
      {"measurement": "Hemolytic activities (%hemolysis)", "setting": "[5]; 100 µg/mL", "result": "8.27±3.73", "unit": "%"},
      {"measurement": "Hemolytic activities (%hemolysis)", "setting": "[5]; 200 µg/mL", "result": "9.68±2.74", "unit": "%"},
      {"measurement": "Hemolytic activities (%hemolysis)", "setting": "[5]; 400 µg/mL", "result": "10.56±1.99", "unit": "%"},
      {"measurement": "hemolysis at the MICs level", "setting": "[5]; at the MICs level, single figure of the abstract", "result": 1.50, "unit": "%"},
      {"measurement": "FICI", "setting": "[6]; [16]", "result": "0.07±0.00"},
      {"measurement": "MIC, AMP alone", "setting": "[6]; AMP alone", "result": ">400", "unit": "µg/mL"},
      {"measurement": "FICI", "setting": "[7]", "result": "0.63±0.17"},
      {"measurement": "FICI", "setting": "[8]; [16]", "result": "0.52±0.00"},
      {"measurement": "MIC, AMP alone", "setting": "[8]; AMP alone", "result": ">400", "unit": "µg/mL"},
      {"measurement": "FICI", "setting": "[9]; [16]", "result": "0.04±0.01"},
      {"measurement": "MIC, AMP alone", "setting": "[9]; AMP alone", "result": ">400", "unit": "µg/mL"},
      {"measurement": "FICI", "setting": "[10]; [16]", "result": "0.52±0.00"},
      {"measurement": "MIC, AMP alone", "setting": "[10]; AMP alone", "result": 12.5, "unit": "µg/mL"},
      {"measurement": "FICI", "setting": "[11]; [16]", "result": "1.01±0.00"},
      {"measurement": "MIC, AMP alone", "setting": "[11]; AMP alone", "result": ">400", "unit": "µg/mL"},
      {"measurement": "FICI", "setting": "[12]; [16]", "result": "1.04±0.04"},
      {"measurement": "MIC, AMP alone", "setting": "[12]; AMP alone", "result": ">400", "unit": "µg/mL"},
      {"measurement": "FICI", "setting": "[13]; [16]", "result": "0.76±0.35"},
      {"measurement": "MIC, AMP alone", "setting": "[13]; AMP alone", "result": ">400", "unit": "µg/mL"},
      {"measurement": "Antimicrobial peptides against M. abscessus isolates, MIC value", "setting": "[14]", "result": ">400", "unit": "µg/mL"},
      {"measurement": "Antimicrobial peptides against M. abscessus isolates, MIC value", "setting": "[15]", "result": ">400", "unit": "µg/mL"}
    ]}
  ]
}
